Experimental data: ChEMBL document CHEMBL1772973, “Design, synthesis, radiolabeling, and in vitro and in vivo evaluation of bridgehead iodinated analogues of N-{2-[4-(2-methoxyphenyl)piperazin-1-yl]ethyl}-N-(pyridin-2-yl)cyclohexanecarboxamide (WAY-100635) as potential SPECT ligands for the 5-HT1A receptor” (J Med Chem, 2011)

How the values were obtained:
[1] = target: T1, Alpha-1A adrenergic receptor (Homo sapiens, UniProt P35348)
T1 sequence (P35348 whole entry): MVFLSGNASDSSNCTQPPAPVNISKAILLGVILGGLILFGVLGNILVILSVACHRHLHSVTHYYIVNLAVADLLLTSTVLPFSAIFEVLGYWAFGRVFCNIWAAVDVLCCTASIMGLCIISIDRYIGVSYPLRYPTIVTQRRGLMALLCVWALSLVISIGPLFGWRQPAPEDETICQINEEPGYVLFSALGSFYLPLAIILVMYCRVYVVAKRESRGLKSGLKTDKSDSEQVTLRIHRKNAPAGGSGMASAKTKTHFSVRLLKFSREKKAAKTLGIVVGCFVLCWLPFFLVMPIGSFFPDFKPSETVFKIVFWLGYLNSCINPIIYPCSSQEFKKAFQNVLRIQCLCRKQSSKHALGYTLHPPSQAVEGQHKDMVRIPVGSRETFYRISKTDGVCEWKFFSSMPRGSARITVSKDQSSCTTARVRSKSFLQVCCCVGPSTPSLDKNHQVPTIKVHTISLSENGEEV
Description: Inhibition of adrenergic alpha1A receptor

physchem = conditions: octanol/water, pH 7.4
[2] = target: T2, Alpha-1B adrenergic receptor (Homo sapiens, UniProt P35368)
T2 sequence (P35368 whole entry): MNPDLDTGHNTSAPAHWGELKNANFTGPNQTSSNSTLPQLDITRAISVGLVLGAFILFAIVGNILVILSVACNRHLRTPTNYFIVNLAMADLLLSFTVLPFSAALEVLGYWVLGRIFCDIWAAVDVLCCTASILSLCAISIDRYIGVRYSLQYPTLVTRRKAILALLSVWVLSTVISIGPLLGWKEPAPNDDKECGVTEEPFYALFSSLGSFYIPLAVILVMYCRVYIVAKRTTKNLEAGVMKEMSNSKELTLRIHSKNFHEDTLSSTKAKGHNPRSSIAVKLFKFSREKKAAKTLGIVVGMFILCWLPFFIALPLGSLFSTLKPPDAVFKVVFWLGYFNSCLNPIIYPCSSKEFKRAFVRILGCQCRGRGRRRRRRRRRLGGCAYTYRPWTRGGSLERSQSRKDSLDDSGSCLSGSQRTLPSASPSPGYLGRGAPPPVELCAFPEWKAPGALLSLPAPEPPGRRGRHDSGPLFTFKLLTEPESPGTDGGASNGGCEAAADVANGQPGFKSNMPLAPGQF
Description: Inhibition of adrenergic Alpha-1B receptor

[3] = target: 5-hydroxytryptamine receptor 7 (Homo sapiens, UniProt P34969)
5-hydroxytryptamine receptor 7, sequence (P34969 whole entry): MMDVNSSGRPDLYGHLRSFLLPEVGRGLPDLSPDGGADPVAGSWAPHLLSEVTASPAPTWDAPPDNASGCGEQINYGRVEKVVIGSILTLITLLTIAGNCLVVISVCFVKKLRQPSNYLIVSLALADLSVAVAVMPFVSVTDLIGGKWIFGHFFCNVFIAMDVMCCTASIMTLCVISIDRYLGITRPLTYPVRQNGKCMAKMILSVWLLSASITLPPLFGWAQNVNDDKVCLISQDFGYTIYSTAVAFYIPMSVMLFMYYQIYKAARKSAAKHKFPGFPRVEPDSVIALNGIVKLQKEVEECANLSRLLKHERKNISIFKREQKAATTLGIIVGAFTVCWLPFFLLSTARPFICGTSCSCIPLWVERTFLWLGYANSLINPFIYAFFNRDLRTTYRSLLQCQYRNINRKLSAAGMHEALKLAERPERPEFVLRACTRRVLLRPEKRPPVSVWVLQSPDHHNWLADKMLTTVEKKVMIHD

[4] = target: 5-hydroxytryptamine receptor 1B (Homo sapiens, UniProt P28222)
5-hydroxytryptamine receptor 1B, sequence (P28222 whole entry): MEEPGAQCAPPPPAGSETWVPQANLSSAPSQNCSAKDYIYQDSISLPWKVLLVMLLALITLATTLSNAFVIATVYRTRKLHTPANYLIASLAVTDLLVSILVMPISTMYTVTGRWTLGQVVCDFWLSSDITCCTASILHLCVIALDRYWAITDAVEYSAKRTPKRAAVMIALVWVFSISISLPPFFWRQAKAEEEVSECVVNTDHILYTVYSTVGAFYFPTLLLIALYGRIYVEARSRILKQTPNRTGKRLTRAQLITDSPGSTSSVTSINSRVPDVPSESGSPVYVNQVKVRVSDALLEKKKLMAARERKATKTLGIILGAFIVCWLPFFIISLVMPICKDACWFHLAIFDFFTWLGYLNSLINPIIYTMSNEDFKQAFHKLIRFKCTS

D(4) dopamine receptor = target: T3, D(4) dopamine receptor (Homo sapiens, UniProt P21917)
T3 sequence (P21917 whole entry): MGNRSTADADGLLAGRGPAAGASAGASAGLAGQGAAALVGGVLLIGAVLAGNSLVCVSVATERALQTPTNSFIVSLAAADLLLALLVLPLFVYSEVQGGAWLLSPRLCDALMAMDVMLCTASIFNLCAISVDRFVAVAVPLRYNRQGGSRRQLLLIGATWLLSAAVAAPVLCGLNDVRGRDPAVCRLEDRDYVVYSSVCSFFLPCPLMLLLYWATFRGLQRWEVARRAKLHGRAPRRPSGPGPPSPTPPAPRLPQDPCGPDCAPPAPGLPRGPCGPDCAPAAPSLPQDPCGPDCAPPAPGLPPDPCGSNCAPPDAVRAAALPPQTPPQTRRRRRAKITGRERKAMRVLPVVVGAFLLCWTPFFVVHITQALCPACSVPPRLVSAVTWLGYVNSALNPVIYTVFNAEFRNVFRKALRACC
Description: Inhibition of dopamine D4 receptor

[5] = target: T4, 5-hydroxytryptamine receptor 1A (Homo sapiens, UniProt P08908); experiment: biochemical
T4 sequence (P08908 whole entry): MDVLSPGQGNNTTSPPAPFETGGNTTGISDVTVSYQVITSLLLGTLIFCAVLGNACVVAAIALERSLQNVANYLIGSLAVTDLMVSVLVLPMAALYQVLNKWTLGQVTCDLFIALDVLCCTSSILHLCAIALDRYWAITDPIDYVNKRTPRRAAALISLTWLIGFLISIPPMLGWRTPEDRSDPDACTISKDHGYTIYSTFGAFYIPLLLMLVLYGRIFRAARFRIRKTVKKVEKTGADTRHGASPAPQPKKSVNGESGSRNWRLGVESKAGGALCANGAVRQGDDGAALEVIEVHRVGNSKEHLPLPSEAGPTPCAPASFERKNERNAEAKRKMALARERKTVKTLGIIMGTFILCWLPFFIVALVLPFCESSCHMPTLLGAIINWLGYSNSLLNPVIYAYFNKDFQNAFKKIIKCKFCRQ
Description: Displacement of [3H]8-OH-DPAT from human cloned 5HT1A receptor expressed in HEK293 EBNA cells after 1 hr by liquid scintillation counting

[6] = target: T5, Alpha-1D adrenergic receptor (Homo sapiens, UniProt P25100)
T5 sequence (P25100 whole entry): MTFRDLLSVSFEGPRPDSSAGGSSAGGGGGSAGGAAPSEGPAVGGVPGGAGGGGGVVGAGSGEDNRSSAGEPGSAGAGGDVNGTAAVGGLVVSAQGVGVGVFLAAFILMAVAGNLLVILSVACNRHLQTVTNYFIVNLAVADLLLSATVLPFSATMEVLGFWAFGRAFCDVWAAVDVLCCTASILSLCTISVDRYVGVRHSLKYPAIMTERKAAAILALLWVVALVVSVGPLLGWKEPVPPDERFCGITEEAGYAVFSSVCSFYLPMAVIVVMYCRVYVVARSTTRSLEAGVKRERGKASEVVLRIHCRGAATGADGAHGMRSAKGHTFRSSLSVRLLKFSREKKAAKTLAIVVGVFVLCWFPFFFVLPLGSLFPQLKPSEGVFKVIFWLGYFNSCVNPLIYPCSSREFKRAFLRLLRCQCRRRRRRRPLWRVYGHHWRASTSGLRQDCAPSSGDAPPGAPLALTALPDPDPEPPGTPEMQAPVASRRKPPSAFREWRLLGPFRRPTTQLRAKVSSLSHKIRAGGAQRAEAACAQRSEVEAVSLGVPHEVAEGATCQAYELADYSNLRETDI
Description: Inhibition of adrenergic Alpha-1D receptor

[7] = target: T4, 5-hydroxytryptamine receptor 1A
Rattus norvegicus [8] = experiment: Biodistribution in non-labeled WAY-100635 ptretreated Wistar rat rest cortex at 7 MBq, iv after 45 mins; type: ADME, organism-based; conditions: in vivo, 0.75 h
Heart [9] = experiment: Biodistribution in Wistar rat heart at 7 MBq, iv after 45 mins; type: ADME, organism-based; conditions: in vivo, 0.75 h
Cerebellum [10] = experiment: Biodistribution in Wistar rat cerebellum at 7 MBq, iv after 45 mins; type: ADME, organism-based; conditions: in vivo, 0.75 h
Liver [11] = experiment: Biodistribution in non-labeled WAY-100635 ptretreated Wistar rat liver at 7 MBq, iv after 45 mins; type: ADME, organism-based; conditions: in vivo, 0.75 h
Nucleic Acid [12] = experiment: Ratio of drug level in cerebellum to frontal cortex in Wistar rat at 7 MBq, iv after 45 mins; type: ADME, organism-based; conditions: in vivo, 0.75 h
Nucleic Acid [13] = experiment: Ratio of drug level in cerebellum to hippocampus in Wistar rat at 7 MBq, iv after 45 mins; type: ADME, organism-based; conditions: in vivo, 0.75 h
Blood [14] = experiment: Biodistribution in non-labeled WAY-100635 ptretreated Wistar rat blood at 7 MBq, iv after 45 mins; type: ADME, organism-based; conditions: in vivo, 0.75 h
Liver [15] = experiment: Biodistribution in Wistar rat liver at 7 MBq, iv after 45 mins; type: ADME, organism-based; conditions: in vivo, 0.75 h
Rattus norvegicus [16] = experiment: Biodistribution in Wistar rat rest cortex at 7 MBq, iv after 45 mins; type: ADME, organism-based; conditions: in vivo, 0.75 h
Rattus norvegicus [17] = experiment: Biodistribution in Wistar rat frontal cortex at 7 MBq, iv after 45 mins; type: ADME, organism-based; conditions: in vivo, 0.75 h
Striatum [18] = experiment: Biodistribution in Wistar rat striatum at 7 MBq, iv after 45 mins; type: ADME, organism-based; conditions: in vivo, 0.75 h
Lung [19] = experiment: Biodistribution in Wistar rat lung at 7 MBq, iv after 45 mins; type: ADME, organism-based; conditions: in vivo, 0.75 h
Cerebellum [20] = experiment: Biodistribution in non-labeled WAY-100635 ptretreated Wistar rat cerebellum at 7 MBq, iv after 45 mins; type: ADME, organism-based; conditions: in vivo, 0.75 h
Hippocampus [21] = experiment: Biodistribution in Wistar rat hippocampus at 7 MBq, iv after 45 mins; type: ADME, organism-based; conditions: in vivo, 0.75 h
Nucleic Acid [22] = experiment: Ratio of drug level in cerebellum to occipital cortex in Wistar rat at 7 MBq, iv after 45 mins; type: ADME, organism-based; conditions: in vivo, 0.75 h
Striatum [23] = experiment: Biodistribution in non-labeled WAY-100635 ptretreated Wistar rat striatum at 7 MBq, iv after 45 mins; type: ADME, organism-based; conditions: in vivo, 0.75 h
Occipital cortex [24] = experiment: Biodistribution in non-labeled WAY-100635 ptretreated Wistar rat occipital cortex at 7 MBq, iv after 45 mins; type: ADME, organism-based; conditions: in vivo, 0.75 h
Kidney [25] = experiment: Biodistribution in Wistar rat kidney at 7 MBq, iv after 45 mins; type: ADME, organism-based; conditions: in vivo, 0.75 h
Rattus norvegicus [26] = experiment: Biodistribution in non-labeled WAY-100635 ptretreated Wistar rat frontal cortex at 7 MBq, iv after 45 mins; type: ADME, organism-based; conditions: in vivo, 0.75 h
Thyroid gland = experiment: Biodistribution in non-labeled WAY-100635 ptretreated Wistar rat thyroid assessed per organ at 7 MBq, iv after 45 mins; type: ADME, organism-based; conditions: in vivo, 0.75 h
Heart [27] = experiment: Biodistribution in non-labeled WAY-100635 ptretreated Wistar rat heart at 7 MBq, iv after 45 mins; type: ADME, organism-based; conditions: in vivo, 0.75 h
Occipital cortex [28] = experiment: Biodistribution in Wistar rat occipital cortex at 7 MBq, iv after 45 mins; type: ADME, organism-based; conditions: in vivo, 0.75 h
Lung [29] = experiment: Biodistribution in non-labeled WAY-100635 ptretreated Wistar rat lung at 7 MBq, iv after 45 mins; type: ADME, organism-based; conditions: in vivo, 0.75 h
Hippocampus [30] = experiment: Biodistribution in non-labeled WAY-100635 ptretreated Wistar rat hippocampus at 7 MBq, iv after 45 mins; type: ADME, organism-based; conditions: in vivo, 0.75 h
Kidney [31] = experiment: Biodistribution in non-labeled WAY-100635 ptretreated Wistar rat kidney at 7 MBq, iv after 45 mins; type: ADME, organism-based; conditions: in vivo, 0.75 h
Blood [32] = experiment: Biodistribution in Wistar rat blood at 7 MBq, iv after 45 mins; type: ADME, organism-based; conditions: in vivo, 0.75 h
Nucleic Acid [33] = experiment: Ratio of drug level in cerebellum to striatum in Wistar rat at 7 MBq, iv after 45 mins; type: ADME, organism-based; conditions: in vivo, 0.75 h

## O=C(N(CCN1CCN(c2ccccc2O)CC1)c1ccccn1)C12C3C4C1C1C2C3C41I (stereo not drawn)
[1]
  Ki: 176 nM
physchem
  logD: 4.03
[2]
  Ki: 25 nM
[3]
  Ki: 50 nM
[4]
  Ki: 272 nM
D(4) dopamine receptor
  Ki: 890 nM
[5]
  IC50: 1.5 nM
  Ki: 0.64 nM
[6]
  Ki: 181 nM
[7]
  Ki: 1.4 nM

## O=C(N(CCN1CCN(c2ccccc2O)CC1)c1ccccn1)C12CCC(I)(CC1)CC2
[5]
  IC50: 4.57 nM
  Ki: 1.95 nM

## O=C(N(CCN1CCN(c2ccccc2O)CC1)c1ccccn1)C12CCC(I)(CC1)C2
[5]
  IC50: 1.19 nM
  Ki: 0.47 nM

## COc1ccccc1N1CCN(CCN(C(=O)C23C4C5C2C2C3C4C52[123I])c2ccccn2)CC1 (stereo not drawn)
Rattus norvegicus [8]
  Drug uptake: 0.04 % ID/g
Heart [9]
  Drug uptake: 0.16 % ID/g
Cerebellum [10]
  Drug uptake: 0.05 % ID/g
Liver [11]
  Drug uptake: 2.77 % ID/g
Nucleic Acid [12]
  Ratio: 1.16
Nucleic Acid [13]
  Ratio: 2.51
Blood [14]
  Drug uptake: 0.33 % ID/g
Liver [15]
  Drug uptake: 2.34 % ID/g
Rattus norvegicus [16]
  Drug uptake: 0.05 % ID/g
Rattus norvegicus [17]
  Drug uptake: 0.06 %ID
Striatum [18]
  Drug uptake: 0.04 % ID/g
Lung [19]
  Drug uptake: 0.28 % ID/g
Cerebellum [20]
  Drug uptake: 0.05 % ID/g
Hippocampus [21]
  Drug uptake: 0.1 % ID/g
Nucleic Acid [22]
  Ratio: 1.21
Striatum [23]
  Drug uptake: 0.04 % ID/g
Occipital cortex [24]
  Drug uptake: 0.05 % ID/g
Kidney [25]
  Drug uptake: 1.37 % ID/g
Rattus norvegicus [26]
  Drug uptake: 0.05 % ID/g
Thyroid gland
  Drug uptake: 0.01 %ID
Heart [27]
  Drug uptake: 0.2 % ID/g
Occipital cortex [28]
  Drug uptake: 0.06 % ID/g
Lung [29]
  Drug uptake: 0.31 % ID/g
Hippocampus [30]
  Drug uptake: 0.06 % ID/g
Kidney [31]
  Drug uptake: 1.32 % ID/g
Blood [32]
  Drug uptake: 0.24 % ID/g
Nucleic Acid [33]
  Ratio: 0.91

## O=C(C1CCCCC1)N(CCN1CCN(c2ccccc2O)CC1)c1ccccn1
[5]
  IC50: 0.77 nM
  Ki: 0.33 nM
